# Measured values: patent US11124536B2, “Uridine nucleoside derivatives, compositions and methods of use” (Tufts University, priority 2013, dated 2021)
# “Also recorded” adds a separate entry of the source.
# Experiments:
# PSAPP mice [1] = assay: Postmortem immunohistochemistry of amyloid beta plaque load in cortex and hippocampus; assay type: in vivo
# Description: Mice were perfused transcardially with 4% paraformaldehyde and 40 μm Coronal sections were collected. Sections were sequentially incubated in 0.3% H2O2 for 10 minutes, blocking solution for 2 hrs, blocking solution containing the primary antibody (rabbit anti-beta1-42; rabbit anti-beta1-40, from Chemicon International and rat anti-CD45) for 48 hours at 4° C., and blocking solution containing biotinylated antibody or fluorescently-labeled antibody for 2 hours at room temperature. Sections were visualized in a bright field microscope or a confocal microscope, and the optical density was obtained using MetaMorph software.
# To generate these graphs showing plaque load, mice were euthanized, brain sections cut and antibodies directed against Aβ 42 were used to disclose Aβ plaques. Images were acquired digitally and an algorithm was applied to threshold the image so that plaques were isolated from the background. The algorithm then calculated the percent area of the field of view occupied by the plaques.
# Brain samples were collected for Abeta analysis with immunostaining. Brains samples were collected after transcardial perfusion with phosphate buffer and 4% paraformaldehyde. Floating brain sections (40 micron) were collected using a microtome. Immunostaining for Aβ40 and Aβ42 were performed according to previously established protocol. Images with DAB staining were collected with brightfield microscopy and analyzed with ImageJ Macro. All data analysis and statistics were performed in GraphPad Prism 6.0.
# PSAPP mice [2] = assay: Contextual fear conditioning test (freezing %); assay type: in vivo
# Description: On day one, animals were trained in a fear conditioning apparatus for a total of 7 minutes with a two-pairing paradigm of cue and mild foot shock (a 30-s acoustic-conditioned stimulus, 80 dB; a 2-s shock stimulus, 0.5 mA). To evaluate contextual fear learning, the animals were returned to the training context 24 hours post-training, and freezing behavior was scored for 5 minutes. Freezing behavior was monitored by MotorMonitor (Hamilton Kinder) and scored every 5 seconds.
# This represents a decrease in the cognitive impairment observed in the untreated mice.
# PSAPP mice [3] = assay: Multiplex analysis of circulating plasma cytokine levels; assay type: in vivo
# Description: Inflammatory cytokines were assessed in mouse plasma of both wild type and PS1/APP mice (Alzheimer's mouse model) and the impact of intraperitoneal delivery of the diphosphate derivative of compound 5 on circulating cytokines was assessed. […] 24 hours following the final injection, plasma was collected. Wildtype, age matched littermates and PSAPP mice (>6 months of age) were treated either with vehicle (phosphate buffered saline) or vehicle containing compound.
# As part of the study described in Example 16, the levels of numerous cytokines in plasma of mice treated with vehicle or compound 5 were also evaluated. As described in Example 16, treatment was initiated when the mice were approximately 3 months old. PSAPP mice were treated for 100 days with daily injections of 10 μg/kg of compound 5 or vehicle. Following treatment and the fear conditioning task experiment, plasma was taken for multiplex cytokine analysis of circulating cytokine levels in vehicle-treated versus compound-treated PSAPP mice. Cytokine levels are assayed using a multi-plex system where beads are labelled with capture antibody specific for each analyte tested. Each bead set is coupled to a specific capture antibody and is distinguishable from beads coupled to a different capture antibody. Thus, the levels of each analyte can be evaluated and distinguished. […] In FIGS. 17-20, compound 5 is indicated along the x-axis as “compound”.
# Oral bioavailability = settings: in vivo
# [4] = Half-life in human whole blood; assay type: in vitro ADME
# human THP-1 cells = assay: Cytokine release from THP-1 cells into culture medium (multiplex cytokine analysis); assay type: cell-based; settings: 24 hours
# Description: THP-1 cells, a human cell line derived from monocytes, were treated in vitro with vehicle, the P2Y6 receptor antagonist MRS 2578, or compound 5, singly or in combination. THP-1 cells were seeded in 24 well plates at a density of 4×10^5 cells/well in culture medium for 24 hours. Thereafter, vehicle, compound 5, or MRS 2578 (singly or in combination) were added to the cultures for 24 hours. Subsequently the culture medium was aspirated and subjected to multiplex cytokine analysis. Data are presented as means+/−sem. MRS 2578 has a molecular weight of about 472 and is also described using CAS number 711019-86-2.
# [5] = Cmax at the effective dose; settings: mouse, in vivo; dose 10 ug/kg
smiles,measurement,setting,value
O=C1C=CC([C@@H]2O[C@H](CO)C(O)C2O)C(=O)N1Cc1noc2ccccc12 (stereo partly shown) [compound 5],size distribution of remaining plaques,"PSAPP mice [1]; 10 μg/kg i.p. once per day for 7 days, PS1/APP mice 26 weeks",significantly reduced
same,Aβ40 plaque burden,"PSAPP mice [1]; 10 μg/kg i.p. once per day for 7 days, PS1/APP mice 26 weeks, cortex, FIG. 13A",significantly reduced
same,Aβ42 plaque burden,"PSAPP mice [1]; 10 μg/kg i.p. once per day for 7 days, PS1/APP mice 26 weeks, cortex, FIG. 13B",significantly reduced
same,plaque burden vs vehicle,"PSAPP mice [1]; Example 16: 10 μg/kg i.p. daily 100 days from approx. 3 months old, FIG. 16",decrease; also recorded: reduced
same,amyloid beta accumulation (plaque load) in the cortex,"PSAPP mice [1]; Example 18: 10 μg/kg i.p. daily 100 days, FIG. 22A, p<0.01",decreased
same,amyloid beta accumulation (plaque load) in the hippocampus,"PSAPP mice [1]; Example 18: 10 μg/kg i.p. daily 100 days, FIG. 22B, p<0.02",decreased
same,amyloid beta accumulation in the hippocampus (using Aβ42),"PSAPP mice [1]; Example 19: 10 μg/kg i.p. daily 7 days from approx. 6 months old, FIG. 24A lower panel",decreased
same,amyloid beta accumulation in the cortex (using Aβ40),"PSAPP mice [1]; Example 19: 10 μg/kg i.p. daily 7 days from approx. 6 months old, FIG. 24A upper panel",decreased
same,plaque size,"PSAPP mice [1]; Example 19: 10 μg/kg i.p. daily 7 days, FIG. 24B",decrease
same,freezing time (contextual fear memory) vs vehicle,"PSAPP mice [2]; Example 16: 10 μg/kg i.p. daily 100 days from approx. 3 months old (pre-symptomatic), FIG. 15",statistically significant increase
same,freezing time (contextual fear memory) vs vehicle,"PSAPP mice [2]; Example 18: 10 μg/kg i.p. daily 100 days from approx. 3 months old, FIG. 22C, p<0.02",statistically significant increase
same,"plasma levels of IL-4, IL-10, and IL-12 (IL-12(p70))","PSAPP mice [3]; Example 17: 10 μg/kg daily 100 days from approx. 3 months old, FIG. 17",statistically significant reduction
same,plasma level of p40 subunit alone (IL-12(p40)),"PSAPP mice [3]; Example 17: 10 μg/kg daily 100 days, FIG. 17",does not reflect a change
same,"average plasma levels of IFN-r, IL-1β, IL-2, IL-3, IL-5, IL-6, IL-7, IL-9, IL-13, IL-17, LIF, MIP-1α, and MIP-1β","PSAPP mice [3]; Example 17: 10 μg/kg daily 100 days, FIGS. 17-20",reduced
same,"levels of M-CSF, MIP-2, Eotaxin, GM-CSF, G-CSF, LIX, MCP-1, IL-1α and IP-10","PSAPP mice [3]; Example 17: 10 μg/kg daily 100 days, FIGS. 18-20",no or substantially no change
same,"plasma levels of IL-12 (IL-12(p70)), IL-13, IL-17, IL-10, IL-4, MIP-1a, MIP-1b, and IL-2","PSAPP mice [3]; Example 18: 10 μg/kg i.p. daily 100 days from approx. 3 months old, FIG. 21",statistically significant reduction
same,"plasma levels of IL-12 (IL-12(p70)), IL-13, IL-17, IL-10, MIP-1a, MIP-1b, and TNFα","PSAPP mice [3]; Example 19: 10 μg/kg i.p. daily 7 days from approx. 6 months old (symptomatic), FIG. 23",statistically significant reduction
same,bioavailability,Oral bioavailability,72.2%
same,half-life,[4],16.4 h
same,release of cytokines from THP-1 cells,human THP-1 cells; 10 nM,reduced
same,release of IL-7 from human THP-1 cells,"human THP-1 cells; compound 5 10 nM alone, FIG. 26",decreased
same,Cmax,[5],13 nM
